Assay results as given in patent US20250171511A1, “ANTIVIRAL PEPTIDES AND METHODS OF USE THEREOF” (Versitech Limited, priority 2021, published 2025).
“Also recorded” adds a separate entry of the source. Where two headings read alike, the source gives them in different places. Where no end group is shown, it is not given here. 4MPA = not defined here

Assays:
VeroE6 cells [1] = test: MTT cytotoxicity assay in VeroE6 cells; type: cell-based
Protocol: (§1) Cytotoxicity of peptides was determined by the detection of 50% cytotoxic concentration (CC50) using a tetrazolium-based colorimetric MTT assay (H. Zhao, et al., Sci Rep, 6 (2016) 22008). Briefly, cells were seeded in 96-well cell culture plate at an initial density of 4×10^4 cells per well in DMEM supplemented with 10% FBS and incubated for overnight. Cell culture media were removed and then DMEM supplemented with various concentrations of peptides and 1% FBS were added to each well. After 24 h incubation at 37° C., MTT solution (5 mg ml^−1, 10 μl per well) was added to each well for incubation at 37° C. for 4 h. Then, 100 μl of 10% SDS in 0.01M HCl was added to each well. After further incubation at room temperature with shaking overnight, the plates were read at OD570 using VictorTM X3 Multilabel Reader (PerkinElmer, USA). Cell culture wells without peptides were used as the experiment control and medium only served as a blank control.

Calu-3 cells = test: MTT cytotoxicity assay in Calu-3 cells; type: cell-based
Protocol: as §1

SARS-CoV-2 [2] = test: Nucleoprotein (NP) immunofluorescence assay; type: cell-based; settings: VeroE6; virus pretreated; compared with untreated virus
SARS-CoV-2 [3] = test: Viral attachment/entry and replication in VeroE6 cells by RT-qPCR; type: cell-based
SARS-CoV-2 [4] = test: Viral entry fluorescence assay; type: cell-based
SARS-CoV-2 [5] = test: Transmission electron microscopy assay; settings: virus pretreated
Protocol: To determine the effect of 4H30 on viral particles, SARS-CoV-2 was pretreated by 100 μg ml^−1 of 4H30 or H30 for 1 h. The virus was fixed by formalin for overnight. For spike treated by 4H30 or H30, spike (100 μg ml^−1 mixed with 50 μg ml^−1 of 4H30 or H30. Viral or protein samples were applied to continuous carbon grids. The grids were transferred into 4% uranyl acetate and incubated for 1 min. After removing the solution, the grids were air-dried at room temperature. For each peptide/DNA nanoparticle, three independent experiments were done for taking TEM images by FEI Tecnal G2-20 TEM or Philips CM100-TEM.

SARS-CoV-2 [6] = test: Viral release assay; type: cell-based
[7] = ELISA binding of 4H30 to chondroitin sulfate; settings: compared with BSA
SARS-CoV-2 [8] = test: SARS-CoV-2 replication in Calu-3 cells pretreated by 4H30; type: cell-based
SARS-CoV-2 [9] = test: Antiviral activity of GAG-treated 4H30 (viral RNA copy); type: cell-based
VeroE6 cells [10] = test: Endosomal acidification assay; type: cell-based
Protocol: Endosomal acidification was detected with a pH-sensitive dye (pHrodo green dextran, Invitrogen, Cat^# P35365) according to the manufacturer's instructions as previously described but with slight modification (H. Zhao, et al., Nat Commun, 9 (2018) 2358). First, VeroE6 cells were treated with DMEM, 4H30 (25.0 μg ml^−1), or bafilomycin A1 (50.0 nM) at 4° C. for 15 min. Second, VeroE6 cells were added with 100 μg ml^−1 of pH-sensitive dye and DAPI and then incubated at 4° C. for 15 min. Before taking images, cells were further incubated at 37° C. for 15 min and then cells were washed twice with PBS. Finally, PBS was added to cells and images were taken immediately with confocal microscope (Carl Zeiss LSM 800, Germany).

[11] = test system: fusion mediated by spike-Calu-3 cells; test: Spike mediated cell fusion assay with Calu-3 cells; type: cell-based; settings: TMPRSS2 pathway
SARS-CoV-2 (B.1.1.63) [12] = test: Pre-exposure antiviral activity in hamsters; type: in vivo, hamster
[13] = test system: SARS-CoV-2 (B.1. 617.2, Delta); test: Post-exposure antiviral activity in hamsters, Delta; type: in vivo, hamster; settings: 0.5 mg kg^−1, post exposure
HRV-1B = HRV-1B infection, supernatant viral RNA by RT-qPCR; type: cell-based; settings: RD or H1-Hela cells, 30 hpi
Protocol: (§2) Viruses were treated by 4H30 for infection in RD or H1-Hela cells. Viruses, HRV-1B and HRV-B14 were treated by 4H30 in PBS for 30 min and then the treated viruses were added to RD or H1-Hela cells for infection. After 1 h infection, the un-infected viruses were removed and fresh media with the indicated concentration of 4H30 was added to cells for viral culture. The supernatant viruses were measured at 30 hpi by RT-qPCR. Viral RNA copy (%) was the viral RNA of 4H30-treated virus normalized to that of untreated virus (0). […] The primers for detecting the viral RNA copies: HRV-F1: 5′-[…] -3′; HRV-F2: 5′-[…] -3′, HRV-R: 5′-[…] -3′; HRV-Probe: 5′ HEX-[…] -1ABKFQ 3′ (Y=C or T, K=G or T). The supernatant viruses were measured at 30 hpi.

HRV-B14 = HRV-B14 infection, supernatant viral RNA by RT-qPCR; type: cell-based; settings: RD or H1-Hela cells, 30 hpi
Protocol: as §2

spike = spike (Severe acute respiratory syndrome coronavirus 2, UniProt P0DTC2); settings: ELISA
Protocol: (§3) For determining spike and ACE2 binding, 60 ng S or ACE2 in PBST was incubated with peptides at 37° C. for 30 min.

spike and ACE2 = spike and ACE2 (Severe acute respiratory syndrome coronavirus 2, UniProt P0DTC2); settings: ELISA
Protocol: as §3

[14] = intranasal
SARS-CoV-2 (B.1.1.63) [15] = test: Post-infection treatment, viral titers in supernatants; settings: 4H30 added at 6 hpi

GAICHPVFCPRRYKQIGTCGLPGTKCCKKP-4MPA (cysteine pairing not given here; reading uncertain; also: printed as GAICHPVFCPRRYKQIGTCGLPGTKCCKKP-4MPA) [Peptide 4H30]
TC50 (VeroE6 cells [1]): higher than 400 μg ml^−1
TC50 (Calu-3 cells): higher than 400 μg ml^−1
anti-NP staining, viral replication (SARS-CoV-2 [2]): viral replication was significantly inhibited and restricted in very few cells
viral load increase at 6 hpi compared with 1 hpi (SARS-CoV-2 [3]): 13 fold
viral attachment and/or entry (SARS-CoV-2 [3]; cells pretreated by 4H30): significantly increased
viral attachment and/or entry (SARS-CoV-2 [3]; virus pretreated by 4H30): significantly increased
SARS-CoV-2 attachment to cells (SARS-CoV-2 [3]; at 4 degrees): increase SARS-CoV-2 attachment
viral load at 6 hpi compared with 1 hpi (SARS-CoV-2 [3]; cell lysate, virus pretreated by 4H30): no significant increase in viral load
viral clustering and entry (SARS-CoV-2 [4]): did not cluster viral particles and did not block viral entry
viral clustering and entry (SARS-CoV-2 [4]; virus pretreated, Calu-3 and VeroE6 cells): cross-link SARS-CoV-2 to form big viral clusters on Calu-3 and VeroE6 cell membrane without viral entry
integrity of viral particles under TEM (SARS-CoV-2 [5]): did not disrupt viral particles
viral clusters under TEM (SARS-CoV-2 [5]): cross-linked SARS-CoV-2 to form bigger viral clusters
intracellular replicative process (SARS-CoV-2 [6]): not on the intracellular replicative process
viral release, viral load in supernatants (SARS-CoV-2 [6]): significantly inhibit viral release; also recorded: significantly inhibited SARS-CoV-2 release
antiviral activity of 4H30 on viral release (SARS-CoV-2 [6]; 4H30 pretreated by CS or HS): significantly reduced
inhibitory activity of 4H30 on SARS-CoV-2 release (SARS-CoV-2 [6]; 4H30 with BSA): did not significantly affect
binding to chondroitin sulfate (CS) [7]: effectively bind
SARS-CoV-2 replication (SARS-CoV-2 [8]): did not increase SARS-CoV-2 replication
antiviral activity of GAG-treated 4H30 (SARS-CoV-2 [9]; 4H30 treated by 1250 ng/ml of CS or HS): significantly reduced
antiviral activity of GAG-treated 4H30 (SARS-CoV-2 [9]; CS or HS in physiological concentration (50˜100 ng/ml)): still significantly inhibit viral replication
endosomal acidification (VeroE6 cells [10]): inhibition of endosomal acidification
fusion mediated by spike-Calu-3 cells [11]: did not inhibit
syncytia and epithelial cell disorder in bronchial tree (SARS-CoV-2 (B.1.1.63) [12]; 4H30-0.05): not found
SARS-CoV-2 replication in lungs (SARS-CoV-2 (B.1.1.63) [12]; hamster, in vivo): significantly inhibited SARS-CoV-2 replication
antiviral activity (SARS-CoV-2 (B.1.1.63) [12]; hamster, in vivo): did not show antiviral activity
reduction of viral replication (SARS-CoV-2 (B.1.1.63) [12]; hamster, in vivo): 2.3 fold
viral replication in lungs (SARS-CoV-2 (B.1.1.63) [12]; hamster, in vivo): significantly inhibited viral replication
SARS-CoV-2 replication in hamsters [13]: significantly inhibited
syncytium formation and bronchial epithelial pathology in lungs [13]: reduced the syncytium formation and bronchial epithelial pathology
inhibition of HRV-1B, viral RNA copy (HRV-1B): effectively inhibited
inhibition of HRV-B14, viral RNA copy (HRV-B14): effectively inhibited
binding to spike (spike): more effectively bound to spike when compared with ACE2
binding between spike and ACE2 (spike and ACE2): did not significantly affect
pathological and body weight changes ([14]; 4 dpi): did not cause pathological and body weight changes
histopathological and body weight changes ([14]; 40 dpi, compared with mock): no significant histopathological and body weight changes
SARS-CoV-2 replication (SARS-CoV-2 (B.1.1.63) [15]; Calu-3 cells): significantly inhibited
SARS-CoV-2 replication (SARS-CoV-2 (B.1.1.63) [15]; VeroE6 cells): significantly inhibited
